Experimental data taken from ChEMBL document CHEMBL1909294, “Translating clinical findings into knowledge in drug safety evaluation--drug induced liver injury prediction system (DILIps)” (PLoS Comput Biol, 2011).

Key:
Hepatotoxicity [1] = system: Hepatotoxicity;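 for HepSE bilirubinemia: bilirubinemia hepatic side effect score drawn from the DILIps training data, a prediction system for drug-induced liver injury; call rule not given here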;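 for HepSE cholecystitis: Cholecystitis-related hepatic side effect score drawn from the DILIps (drug-induced liver injury prediction) training data set; call rule not given here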;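 for HepSE cholelithiasis: hepatic side effect score for cholelithiasis, drawn from the DILIps training data for predicting drug-induced liver injury; call rule not given here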;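 for HepSE cirrhosis: cirrhosis hepatic side effect score taken from the DILIps (drug-induced liver injury prediction) training set; call rule not given here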;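 for HepSE elevated liver function tests: hepatic side effect score for raised liver function tests, as recorded in the DILIps training set used for predicting drug-induced liver injury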; for HepSE hepatic failure: call rule not given here;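 for HepSE hepatomegaly: hepatic side effect score for hepatomegaly, taken from the training set of the DILIps drug-induced liver injury prediction system; call rule not given here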
Hepatotoxicity [2] = system: Hepatotoxicity; remark: listed apart in the source;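 for HepSE bilirubinemia: bilirubinemia hepatic side effect score drawn from the DILIps training data, a prediction system for drug-induced liver injury; call rule not given here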;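 for HepSE cholecystitis: Cholecystitis-related hepatic side effect score drawn from the DILIps (drug-induced liver injury prediction) training data set; call rule not given here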;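 for HepSE cholelithiasis: hepatic side effect score for cholelithiasis, drawn from the DILIps training data for predicting drug-induced liver injury; call rule not given here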;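 for HepSE cirrhosis: cirrhosis hepatic side effect score taken from the DILIps (drug-induced liver injury prediction) training set; call rule not given here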;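 for HepSE elevated liver function tests: hepatic side effect score for raised liver function tests, as recorded in the DILIps training set used for predicting drug-induced liver injury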; for HepSE hepatic failure: call rule not given here
Hepatotoxicity [3] = system: Hepatotoxicity; remark: listed apart in the source;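 for HepSE bilirubinemia: bilirubinemia hepatic side effect score drawn from the DILIps training data, a prediction system for drug-induced liver injury; call rule not given here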;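 for HepSE cholecystitis: Cholecystitis-related hepatic side effect score drawn from the DILIps (drug-induced liver injury prediction) training data set; call rule not given here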;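 for HepSE cholelithiasis: hepatic side effect score for cholelithiasis, drawn from the DILIps training data for predicting drug-induced liver injury; call rule not given here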;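 for HepSE cirrhosis: cirrhosis hepatic side effect score taken from the DILIps (drug-induced liver injury prediction) training set; call rule not given here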;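 for HepSE elevated liver function tests: hepatic side effect score for raised liver function tests, as recorded in the DILIps training set used for predicting drug-induced liver injury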; for HepSE hepatic failure: call rule not given here
Hepatotoxicity [4] = system: Hepatotoxicity; remark: listed apart in the source;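 for HepSE bilirubinemia: bilirubinemia hepatic side effect score drawn from the DILIps training data, a prediction system for drug-induced liver injury; call rule not given here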;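 for HepSE cholecystitis: Cholecystitis-related hepatic side effect score drawn from the DILIps (drug-induced liver injury prediction) training data set; call rule not given here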;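 for HepSE cholelithiasis: hepatic side effect score for cholelithiasis, drawn from the DILIps training data for predicting drug-induced liver injury; call rule not given here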;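 for HepSE cirrhosis: cirrhosis hepatic side effect score taken from the DILIps (drug-induced liver injury prediction) training set; call rule not given here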;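 for HepSE elevated liver function tests: hepatic side effect score for raised liver function tests, as recorded in the DILIps training set used for predicting drug-induced liver injury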; for HepSE hepatic failure: call rule not given here
Hepatotoxicity [5] = system: Hepatotoxicity; remark: listed apart in the source; for HepSE hepatic failure: call rule not given here
Hepatotoxicity [6] = system: Hepatotoxicity; remark: listed apart in the source; for HepSE hepatic failure: call rule not given here
Hepatotoxicity [7] = system: Hepatotoxicity; remark: listed apart in the source
Hepatotoxicity [8] = system: Hepatotoxicity; remark: listed apart in the source
Hepatotoxicity [9] = system: Hepatotoxicity; remark: listed apart in the source
Hepatotoxicity [10] = system: Hepatotoxicity; remark: listed apart in the source
Hepatotoxicity [11] = system: Hepatotoxicity; remark: listed apart in the source
Hepatotoxicity [12] = system: Hepatotoxicity; remark: listed apart in the source
Hepatotoxicity [13] = system: Hepatotoxicity; remark: listed apart in the source
Hepatotoxicity [14] = system: Hepatotoxicity; remark: listed apart in the source

Row | Structure (SMILES) | HepSE_bilirubinemia (Hepatotoxicity [1]) | HepSE_cholecystitis (Hepatotoxicity [2]) | HepSE_cholelithiasis (Hepatotoxicity [3]) | HepSE_cirrhosis (Hepatotoxicity [4]) | HepSE_elevated liver function tests (Hepatotoxicity [5]) | HepSE_hepatic failure (Hepatotoxicity [6]) | HepSE_hepatic necrosis (Hepatotoxicity [7]) | HepSE_hepatitis (Hepatotoxicity [8]) | HepSE_hepatomegaly (Hepatotoxicity [9]) | HepSE_jaundice (Hepatotoxicity [10]) | HepSE_liver disease (Hepatotoxicity [11]) | HepSE_liver fatty (Hepatotoxicity [12]) | HepSE_liver function tests abnormal (Hepatotoxicity [13]) | HepSE_Combined Scores (Hepatotoxicity [14]) | also measured
1 | C[C@]12COC(=O)C[C@@H]1CC[C@@H]1[C@@H]2CC[C@@]2(C)[C@H]1CC[C@]2(C)O [OXANDROLONE] | 0 | 0 | 0 | 0 | 0 | 0 | 1 | 0 | 0 | 1 | 0 | 0 | 0 | 2 | –
2 | O=C(O)CCc1nc(-c2ccccc2)c(-c2ccccc2)o1 [OXAPROZIN] | 0 | 0 | 0 | 0 | 0 | 1 | 0 | 1 | 0 | 1 | 0 | 0 | 0 | 3 | –
3 | NC(=O)N1c2ccccc2CC(=O)c2ccccc21 [OXCARBAZEPINE] | 0 | 0 | 1 | 0 | 0 | 0 | 0 | 0 | 0 | 0 | 0 | 0 | 1 | 2 | –
4 | Clc1ccc(CO/N=C(\Cn2ccnc2)c2ccc(Cl)cc2Cl)c(Cl)c1 [OXICONAZOLE] | 0 | 0 | 0 | 0 | – | 0 | 0 | 0 | 0 | 0 | 0 | 0 | – | 0 | HepSE_elevated liver function tests (Hepatotoxicity [5]; Liver): 0; HepSE_liver function tests abnormal (Hepatotoxicity [13]; Liver): 0
5 | C[N+](C)(C)CCO.Cn1c(=O)c2[n-]cnc2n(C)c1=O [OXTRIPHYLLINE] | 0 | 0 | 0 | 0 | 0 | 0 | 0 | 0 | 0 | 0 | 0 | 0 | 0 | 0 | –
6 | CCN(CC)CC#CCOC(=O)C(O)(c1ccccc1)C1CCCCC1 (configuration not stated) [OXYBUTYNIN] | 0 | 0 | 0 | 0 | 0 | 0 | 0 | 0 | 0 | 0 | 0 | 0 | 1 | 1 | –
7 | COc1ccc2c3c1O[C@H]1C(=O)CC[C@@]4(O)[C@@H](C2)N(C)CC[C@]314 [OXYCODONE] | – | – | – | – | – | – | – | – | – | – | – | – | – | – | HepSE_bilirubinemia (Hepatotoxicity [1]; Liver): 0; HepSE_cholecystitis (Hepatotoxicity [2]; Liver): 0; HepSE_cholelithiasis (Hepatotoxicity [3]; Liver): 0; HepSE_cirrhosis (Hepatotoxicity [4]; Liver): 0; HepSE_elevated liver function tests (Hepatotoxicity [5]; Liver): 0; HepSE_hepatic failure (Hepatotoxicity [6]; Liver): 0; HepSE_hepatic necrosis (Hepatotoxicity [7]; Liver): 0; HepSE_hepatitis (Hepatotoxicity [8]; Liver): 0; HepSE_hepatomegaly (Hepatotoxicity [9]; Liver): 1; HepSE_jaundice (Hepatotoxicity [10]; Liver): 0; HepSE_liver disease (Hepatotoxicity [11]; Liver): 0; HepSE_liver fatty (Hepatotoxicity [12]; Liver): 0; HepSE_liver function tests abnormal (Hepatotoxicity [13]; Liver): 0; HepSE_Combined Scores (Hepatotoxicity [14]; Liver): 1
8 | C[C@]12C/C(=C/O)C(=O)C[C@@H]1CC[C@@H]1[C@@H]2CC[C@@]2(C)[C@H]1CC[C@]2(C)O [OXYMETHOLONE] | 0 | 0 | 0 | 0 | 0 | 0 | 1 | 0 | 0 | 1 | 0 | 0 | 0 | 2 | –
